The structures appear in SMILES notation.

In data set [1] the target is T1, human TMEM16A (TMEM16Aabc variant) (Homo sapiens, UniProt Q5XXA6).
T1 construct: human TMEM16A (TMEM16Aabc variant)
T1 sequence (Q5XXA6 1-986): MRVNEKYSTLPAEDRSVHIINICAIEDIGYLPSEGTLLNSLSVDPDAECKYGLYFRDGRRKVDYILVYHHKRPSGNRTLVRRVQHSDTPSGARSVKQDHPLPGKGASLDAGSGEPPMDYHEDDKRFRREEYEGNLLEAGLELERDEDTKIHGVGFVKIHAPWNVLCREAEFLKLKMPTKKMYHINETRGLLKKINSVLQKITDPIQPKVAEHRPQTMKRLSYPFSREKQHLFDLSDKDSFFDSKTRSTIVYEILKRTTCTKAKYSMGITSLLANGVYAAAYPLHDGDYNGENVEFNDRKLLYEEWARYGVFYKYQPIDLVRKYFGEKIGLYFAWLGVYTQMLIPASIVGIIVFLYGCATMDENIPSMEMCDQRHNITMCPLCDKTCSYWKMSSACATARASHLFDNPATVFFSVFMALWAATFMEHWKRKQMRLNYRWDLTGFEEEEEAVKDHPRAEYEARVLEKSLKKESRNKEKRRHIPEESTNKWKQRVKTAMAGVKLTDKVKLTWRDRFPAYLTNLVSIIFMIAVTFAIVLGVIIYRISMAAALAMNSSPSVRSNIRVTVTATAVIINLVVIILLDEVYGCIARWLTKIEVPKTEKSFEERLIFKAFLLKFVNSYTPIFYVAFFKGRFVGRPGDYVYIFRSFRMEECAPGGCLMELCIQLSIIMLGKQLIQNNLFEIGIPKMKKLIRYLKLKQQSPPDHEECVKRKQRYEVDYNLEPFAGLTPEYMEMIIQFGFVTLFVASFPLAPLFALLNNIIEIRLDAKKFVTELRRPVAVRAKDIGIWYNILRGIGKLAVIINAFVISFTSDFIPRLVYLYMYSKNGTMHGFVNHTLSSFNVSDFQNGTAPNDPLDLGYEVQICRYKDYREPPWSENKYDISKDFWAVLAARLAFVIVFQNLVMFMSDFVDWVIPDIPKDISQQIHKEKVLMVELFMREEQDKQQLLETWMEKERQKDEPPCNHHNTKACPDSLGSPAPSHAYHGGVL
The experiment in a line: Automated whole-cell patch clamp (QPatch) TMEM16A potentiator assay in FRT cells stably expressing human TMEM16A. In kind it is cell-based. The following applies: for QPatch TMEM16A % Potentiation @ 370 nM: 370 nM test compound; for QPatch TMEM16A % Potentiation @ 370 nM / QPatch TMEM16A % Potentation @ 3.3 μM: percentage increase of baseline TMEM16A current; for QPatch TMEM16A % Potentation @ 3.3 μM: 3.3 μM test compound. The protocol:
Fisher rat thyroid (FRT) cells stably expressing human TMEM16A (TMEM16Aabc variant; Dr Luis Galietta, Insituto Giannina, Italy) were cultured in T-75 flasks in Hams F-12 media with Coon's modification (Sigma) supplemented with 10% (v/v) foetal bovine serum, penicillin-streptomycin (10,000 U/mL/10000 μg/mL), G-418 (750 μg/mL), L-glutamine (2 mM) and sodium bicarbonate solution (7.5% v/v). At ˜90% confluence cells were harvested for experiments by detachment with a 2:1 (v/v) mixture of Detachin (BMS Biotechnology) and 0.25% (w/v) trypsin-EDTA.
FRT-TMEM16A cells were whole-cell patch clamped using an automated planar patch clamp system (Qpatch, Sophion). Briefly, once high resistance (GOhm) seals were established between the cells and the planar recording array the patch was ruptured using suction pulses to establish the whole-cell recording configuration of the patch clamp technique. The assay employed the following solutions (all reagents Sigma): Intracellular solution (mM): N-methyl-D-glucamine 130, CaCl2 18.2, MgCl2 1, HEPES 10, EGTA 10, BAPTA 20, Mg-ATP 2, pH 7.25, 325 mOsm with sucrose.
Extracellular solution (mM): N-methyl-D-glucamine 130, CaCl2 2, MgCl2 1, HEPES 10, pH 7.3, 320 mOsm with sucrose.
The intracellular solution buffers intracellular calcium at levels required to give ˜20% activation of the maximal TMEM16A mediated current (EC20 for calcium ions). Cells were voltage clamped at a holding potential of −70 mV and a combined voltage step (to +70 mV)/ramp (−90 my to +90 mV) was applied at 0.05 Hz. After a period of current stabilisation test compounds, solubilised in 100% (v/v) DMSO and subsequently diluted into extracellular solution, were applied to generate a cumulative concentration response curve. Each concentration of test compound was incubated for 5 minutes before addition of the next concentration. After the final concentration was tested a supramaximal concentration of either a known active positive modulator or the TMEM16A inhibitor, CaCCinhA01 (Del La Fuente et al, 2008) was added to define the upper and lower limits of the assay.
Compound activity was quantified by measuring the increase in current upon compound addition and expressing this as a percentage increase of baseline TMEM16A current level.
In FIG. 1, IBL equals baseline current, I[#1] equals the peak current during test compound concentration 1 incubation period and so on.
Peak TMEM16A current at +70 mV was plotted as a function of time over the assay period. Baseline current (IBL) was measured after a period of stabilisation. The increase in current for each compound addition was determined by taking the peak current during the incubation period and subtracting the current from the previous recording period and then expressing this as a percentage of the baseline current (% potentiation). For test compound concentration 1 in FIG. 1 this is: (I[#1]−IBL/IBL)×100 For each additional concentration tested the increase in current was determined by subtracting the current from the previous incubation period and normalising the baseline value—for test concentration 2 in FIG. 1 this is: (I[#2]−I[#1])/IBL)×100 The values for each test concentration were plotted as a cumulative function of concentration eg. for test concentration two this would be the sum of the peak changes measured during concentration one plus concentration two.

The nature of data set [2]: Microsomal stability (human microsomes). The settings on record: pH 7.4, 1 μM compound, 0.5 mg/mL protein, 1 mM NADPH, 37° C., read-out: Human Microsome Clint. In kind it is in vitro ADME. The protocol:
Microsomes (human) were obtained from Bioreclamation.
All Test and reference control compounds (raloxifene, diclofenac, terfenadine, propranolol, dextromethorphan and metoprolol) were dissolved to create a 100 μM stock (final concentrations; 91.5% Acetonitrile: 8.5% DMSO). Final test compound concentration in incubation was 1 μM (<0.1% DMSO).
Solution 1: 17.4 g potassium phosphate dibasic anhydrous (K2HPO4, 0.1 M) dissolved in 1 L deionised water. Solution 2: 13.6 g potassium phosphate monobasic anhydrous (KH2PO4, 0.1 M) dissolved in 1 L deionised water. pH7.4 with 2 mM magnesium chloride. NADPH (10 mM) is prepared in deionised water. Microsomes (all species) were removed from the −80° C. thawed at 37° C. Microsomes were diluted in assay buffer to achieve a final protein concentration of 0.5 mg/mL and 1 mM NADPH.
The following procedure was completed on a Perkin Elmer Janus robotic platform in 96 well format: The microsomal incubation plate was transferred to a heater shaker at 300 rpm and solution heated to 37° C. for 10 min pre-warm. A no co-factor control at 0 and 45 min and one replicates of each test compound was included in every assay. Microsomes were incubated at 37° C., on a shaker set at 300 rpm throughout the assay. […]

Turning to `C#CC(C)(C)NC(=O)c1cc(NC(=O)Cc2cccc3cc[nH]c23)ccn1` [Compound B, reference compound], in data set [1], the “QPatch TMEM16A % Potentiation @ 370 nM” value is 42% and the “QPatch TMEM16A % Potentation @ 3.3 μM” value was determined as 64%. The microsomal CLint at 1 μM in data set [2] is 46 µL/min/mg.
Regarding `CC1(NC(=O)c2cc(NC(=O)Cc3ccc4cc[nH]c4c3)ccn2)CC(F)(F)C1` [Example 13.1, N-(3,3-Difluoro-1-methyl-cyclobutyl)-4-[[2-(1H-indol-6-yl)acetyl]amino] pyridine-2-carboxamide], in data set [1], the “QPatch TMEM16A % Potentiation @ 370 nM” value stood at 113% and the “QPatch TMEM16A % Potentation @ 3.3 μM” value came out at 115%. Also, the EC50 in data set [1] (FRT-TMEM16A cells, whole-cell patch clamp, peak current at +70 mV, intracellular calcium at EC20) turned out to be 50 nM. Besides, in data set [1] (indole compounds versus comparator Compound B), the “EC50 compared with Compound B” value is given as “lower EC50 values than Compound B”. For the same compound, the “maximum potentiation of TMEM16A compared with Compound B” value in data set [1] (versus comparator Compound B) is given as “improved maximum potentiation of TMEM16A”. The microsomal CLint at 1 μM in data set [2] came to 199 µL/min/mg.

Values taken from US12545658B2, “Pyridine derivatives as calcium-activated chloride channel modulators” (TMEM16A LIMITED, priority 2019, dated 2026).
